What was measured:
Format in all cases: cell-based, human
SMN2 splicing = assay: qPCR of SMN transcripts in motor neurons derived from SMA patient iPSCs (GM24468); settings: iPSC-derived motor neurons (GM24468), 24 h
Description: GM24468 cells were differentiated to motor neurons (MNs) via a motor neuron progenitor (MNP) as previously reported. Briefly described, GM24468 were treated with a chemically defined neural medium, including DMEM/F12, Neurobasal medium at 1:1, 0.5% N2, 0.1% B27, 0.1 mM ascorbic acid (Sigma Aldrich, USA), 1 × GlutaMax, and 1 × penicillin/streptomycin. 3 µM CHIR99021 (Wako), 2 µM DMH1 (Sigma Aldrich) and 2 µM SB431542 (Wako) were added in the medium. The culture medium was changed every other day. GM24468 maintained under this condition for 6 days were induced into neuroepithelial progenitors (NEPs). NEPs were then dissociated and split with dispase (Stemcell technologies) and neural medium containing 0.1 µM RA (Sigma Aldrich), 0.5 µM Purmorphamine (Pur) (Merck, USA), 1 µM CHIR99021, 2 µM DMH1 and 2 µM SB431542. The medium was changed every other day. NEPs maintained under this condition for 6 days differentiated into OLIG2^+ MNPs. The OLIG2^+ MNPs were expanded with the same medium containing 1 µM CHIR99021, 2 µM DMH1, 2 µM SB431542, 0.1 µM RA, and 0.5 µM Pur, and split once a week. To induce MNs differentiation, OLIG2^+ MNPs cultured in suspension in the above neural medium with 0.5 µM RA and 0.1 µM Pur. The medium was changed every other day. OLIG2^+ MNPs under this condition for 6 days differentiated into MNX1^+ MNs. […]

Hs683 cells = assay: psychosine/sphingosine ratio in Hs683 cells by LC/MS/MS; settings: 3000 nM, 12 days, normalized by sphingosine
Description: Hs683 cells were seeded at 1.5 × 10^5 cells/well in 6-well plates and were treated with TEC-1 or SMN-C3 for 12 days. The sample was extracted with EtOH and dried under nitrogen spray. Pellet was completely re-dissolved in EtOH using vortex and ultrasonication. The resulting sample was centrifuged at 15,000 rpm for 5 min at 4 °C. Analytes were separated from the supernatant and quantified by LC/MS/MS as reported by Boutin et al.[48].

FOXM1ΔC = assay: qPCR of FOXM1ΔC variant in GM03813 fibroblasts; settings: 24 h, 300% total target mRNA increase, 95% CI in brackets
Description: (§1) GM03813 fibroblasts, GM24468-derived MNs, NRK-49F, MDCK, CV-1, or NCMDF cells were plated at a density of 0.5 or 1.5 × 10^4, 4 × 10^4, 5 × 10^3, 5 × 10^3, 8 × 10^3, or 6 × 10^3 cells/well on 96-well plates, respectively. After approximately 6 h, the medium was added with the same volume of culture medium containing each compound at the concentration of 0.06, 0.2, 0.6, 0.2, and 6 µM. The final concentration of DMSO was adjusted to 0.1% in culture condition.
(§2) All cells were treated with above compounds for 24 h and washed once with Dulbecco’s Phosphate-Buffered Saline without Ca and Mg [D-PBS (–)] (Wako or Nakarai Tesque). In case of using GM03813 or GM24468-derived MNs, cell lysis and reverse transcription were carried out using SuperPrep Cell Lysis & RT Kit for qPCR in accordance with manufacturer’s recommendations (Toyobo, Japan). qPCR was performed using THUNDERBIRD Probe qPCR Mix (Toyobo). The final concentrations of primers and probes were adjusted to 0.4 µM and 0.15 µM, respectively (Supplementary Table 1). Cycle conditions were as follows; 95 °C for 1 min; followed by 40 cycles of denaturation at 95 °C for 15 s; annealing and elongation at 60 °C for 1 min in the ViiA7 RT-PCR system (Thermo Fisher Scientific). The copy numbers of each target were normalized to those of GAPDH.

FOXM1a = assay: qPCR of FOXM1a variant in GM03813 fibroblasts; settings: 24 h, 200% total target mRNA increase, 95% CI in brackets
Description: as §1, §2

Row | SMILES | SMN2 splicing in motor neurons (SMN2 splicing; similar effects to TEC-1) | increase in psychosine compared to the control (Hs683 cells) | EC4.0× FOXM1ΔC (FOXM1ΔC) | EC3.0× FOXM1a (FOXM1a) | concentration showing clear ability to modulate SMN2 splicing (SMN2 splicing)
1 | CCN1CCC(c2cc(C)c3nc(-c4cc5c(C)nc(C)cn5n4)cc(=O)n3c2)CC1 [SMN-C3, reference compound] | modulates SMN2 splicing | approximately 22 fold | 298.5 (248.8–355.8) nM | 280.3 (211.4–377.7) nM | 
2 | Cc1cn2nc(-c3nc4ccc(N5CCN(C)CC5)cc4c(=O)[nH]3)cc2c(C)n1 [TEC-1, 2-(4,6-dimethylpyrazolo[1,5-a]pyrazin-2-yl)-6-(4-methylpiperazin-1-yl)quinazolin-4(3H)-one] |  | 1.9 fold | 1311.6 (864.7–2285.8) nM | 1096.8 (809.7–1552.2) nM | 30 nM

Reference: paper PMC7562719, “Discovery of a CNS penetrant small molecule SMN2 splicing modulator with improved tolerability for spinal muscular atrophy” (Scientific Reports, 2020)
